Source: patent US20140073602A9, “NITRIC OXIDE DELIVERING HYDROXYALKYL STARCH DERIVATIVES” (FRESENIUS KABI DEUTSCHLAND GMBH, priority 2010, published 2014)

Tested on: phenylephrine-precontracted aortic rings from rats
Assay: Vasodilatory influence in isolated rat aortic ring preparations
Conditions: first set; 1 microM
Experimental: The aim of the experiments was to test for the vasodilatory influence of SNO-HES in isolated rat aortic ring preparations. Isolated aortic rings from rats were precontracted by phenylephrine. SNO-HES-induced relaxations were determined after defined incubation periods. In order to completely relax the aorta and to define the 100% relaxation level, papaverine was applied at the end of an experiment. Two sets of experiments were performed:
Aortic ring preparations from adult rats (male, Lewis, 278-307 g; Janvier, St Berthevin Cedex, France) were used to perform the experiments.
All HES derivatives were supplied by Fresenius-Kabi Deutschland GmbH. SNO-HES derivatives CNO1 and CNO8 (both prepared according to GP3, table 8) were tested alongside with their precursor SH-HES (D31, prepared according to GP2.1 and GP2.2, table 6) and the unmodified HES (HES17, table 1). The first set of experiments was performed with SNO-HES derivative CNO1, the second set with CNO8.
Physiological solution contained (in mM) NaCl 120, KCl 5.5, MgSO4 1.2, KH2PO4 1.2, CaCl2 2.5, NaHCO3 25 and glucose 11. The solution was maintained at 37° C. and gassed with carbogen (95% O2+5% CO2 (v/v)). Phenylephrine (batch 050M1663) and papaverine (batch 010M1565) purchased from Sigma (Munich, Germany) were dissolved in distilled water to prepare stocks of 1 mM and 50 mM, respectively. […]

N[C@@H](CCC(=O)N[C@@H](CSN=O)C(=O)NCC(=O)O)C(=O)O [GSNO, S-nitrosogluthatione]
Relaxation of phenylephrine-contracted aortic rings (in words): immediately and completely relaxed
